ChEMBL document CHEMBL1201862, “PubChem BioAssay data set” (2004)
The source made the active and inactive calls.

Columns and labels:
[1] = molecular target: Fructose-bisphosphate aldolase (Mycobacterium tuberculosis, UniProt P9WQA3); assay: Fluorescence-based biochemical high throughput dose response assay for inhibitors of the fructose-bisphosphate aldolase (FBA) of M. tuberculosis.; type: functional
[2] = inhibitors of HIV Env-driven cell fusion, dose response, cherry-pick (AID 652057); type: functional, cell-based
[3] = CEM21 lymphoblast cell cytotoxicity, dose response, cytotoxicity control for viral fusion inhibitor project, CellTiter-Glo luminescence, cherry-picked (AID 652042); type: functional, cell-based;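 further: potency for signal decrease meaning cytotoxicity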
[4] = off-target signal loss in HeLa-CEM21 co-culture – HeLa F-luc CTL cells, cherry-picked, counter-screen for HIV-1 Env fusion inhibitor project, dose response (AID 652040); type: functional, cell-based;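 further: potency for signal decrease marking cytotoxic or nonspecific inhibition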
[5] = inhibitors of clade B AD8 Env fusion, dose response, cell-based, cherry-pick (AID 652062); type: functional;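 further: luciferase signal from cell-cell fusion driven by HIV-1 clade B AD8 Env; potency is for inhibitors of fusion seen as a drop in luminescence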
[6] = HEK293T cytotoxicity, dose response, cytotoxicity control for miR-122 modulator project, cell-based, inhibitor set, cherry-pick, set 2 (AID 720697); type: functional
[7] = molecular target: SWI/SNF-related matrix-associated actin-dependent regulator of chromatin subfamily A member 2 (Homo sapiens, UniProt P51531); assay: Luminescence-based cell-based high throughput dose response assay to identify activators of the function of SWI/SNF related, matrix associated, actin dependent regulator of chromatin, subfamily a, member 2 (SMARCA2, BRM).; type: functional
Chain of SWI/SNF-related matrix-associated actin-dependent regulator of chromatin subfamily A member 2 (P51531 whole entry): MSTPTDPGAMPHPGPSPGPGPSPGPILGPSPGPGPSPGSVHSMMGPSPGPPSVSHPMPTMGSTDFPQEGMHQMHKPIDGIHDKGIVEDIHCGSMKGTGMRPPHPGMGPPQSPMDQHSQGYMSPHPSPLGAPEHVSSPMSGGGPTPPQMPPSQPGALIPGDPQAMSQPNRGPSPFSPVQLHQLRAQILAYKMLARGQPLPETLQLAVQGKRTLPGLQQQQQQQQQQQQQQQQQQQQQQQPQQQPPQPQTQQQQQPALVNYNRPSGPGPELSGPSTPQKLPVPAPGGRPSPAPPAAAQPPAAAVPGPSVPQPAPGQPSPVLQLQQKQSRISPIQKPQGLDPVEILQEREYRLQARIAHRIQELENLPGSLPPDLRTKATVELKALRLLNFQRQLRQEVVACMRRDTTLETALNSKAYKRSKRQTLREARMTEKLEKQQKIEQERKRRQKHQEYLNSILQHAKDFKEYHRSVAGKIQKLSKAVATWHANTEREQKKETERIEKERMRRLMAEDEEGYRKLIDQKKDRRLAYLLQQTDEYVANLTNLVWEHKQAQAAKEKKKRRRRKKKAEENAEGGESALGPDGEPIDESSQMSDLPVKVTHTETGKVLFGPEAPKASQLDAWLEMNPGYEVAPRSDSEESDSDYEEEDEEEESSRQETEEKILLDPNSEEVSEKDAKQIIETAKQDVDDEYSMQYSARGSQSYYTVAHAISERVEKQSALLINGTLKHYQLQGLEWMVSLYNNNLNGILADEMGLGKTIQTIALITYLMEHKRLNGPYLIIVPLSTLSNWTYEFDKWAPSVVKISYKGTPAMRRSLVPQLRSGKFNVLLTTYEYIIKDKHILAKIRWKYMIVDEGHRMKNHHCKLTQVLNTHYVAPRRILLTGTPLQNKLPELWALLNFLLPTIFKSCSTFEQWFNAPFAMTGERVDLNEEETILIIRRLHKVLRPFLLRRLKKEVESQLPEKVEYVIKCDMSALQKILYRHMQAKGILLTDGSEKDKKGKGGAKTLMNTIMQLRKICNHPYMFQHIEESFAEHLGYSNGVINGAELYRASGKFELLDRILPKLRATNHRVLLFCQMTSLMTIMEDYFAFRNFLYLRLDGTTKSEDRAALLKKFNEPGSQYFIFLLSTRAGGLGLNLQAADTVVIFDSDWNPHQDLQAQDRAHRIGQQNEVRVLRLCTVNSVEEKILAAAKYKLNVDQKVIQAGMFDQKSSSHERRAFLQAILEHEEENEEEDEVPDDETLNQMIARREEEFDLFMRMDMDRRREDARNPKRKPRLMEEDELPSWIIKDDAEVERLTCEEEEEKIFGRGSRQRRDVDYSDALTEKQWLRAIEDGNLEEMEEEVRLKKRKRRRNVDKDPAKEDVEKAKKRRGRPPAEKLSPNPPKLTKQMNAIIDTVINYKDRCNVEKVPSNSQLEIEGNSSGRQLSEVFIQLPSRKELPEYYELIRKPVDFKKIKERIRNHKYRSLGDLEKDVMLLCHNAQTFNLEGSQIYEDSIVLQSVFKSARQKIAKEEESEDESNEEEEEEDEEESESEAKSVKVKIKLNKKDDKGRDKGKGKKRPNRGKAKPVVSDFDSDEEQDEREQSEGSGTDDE

[8] = Counterscreen for activators of the function of SWI/SNF related, matrix associated, actin dependent regulator of chromatin, subfamily a, member 2 (SMARCA2, BRM): Luminescence-based cell-based high throughput dose response assay to identify non-selective compounds using the VP16 reporter assay.; type: functional
[9] = molecular target: T1, Leucine aminopeptidase (Plasmodium falciparum 3D7, UniProt Q8IL11); assay: P. falciparum M17LAP inhibitors, primary screen, biochemical, fluorogenic H-Leu-NHMec substrate, 1536-well (AID 1619); type: functional
T1 sequence (Q8IL11 whole entry): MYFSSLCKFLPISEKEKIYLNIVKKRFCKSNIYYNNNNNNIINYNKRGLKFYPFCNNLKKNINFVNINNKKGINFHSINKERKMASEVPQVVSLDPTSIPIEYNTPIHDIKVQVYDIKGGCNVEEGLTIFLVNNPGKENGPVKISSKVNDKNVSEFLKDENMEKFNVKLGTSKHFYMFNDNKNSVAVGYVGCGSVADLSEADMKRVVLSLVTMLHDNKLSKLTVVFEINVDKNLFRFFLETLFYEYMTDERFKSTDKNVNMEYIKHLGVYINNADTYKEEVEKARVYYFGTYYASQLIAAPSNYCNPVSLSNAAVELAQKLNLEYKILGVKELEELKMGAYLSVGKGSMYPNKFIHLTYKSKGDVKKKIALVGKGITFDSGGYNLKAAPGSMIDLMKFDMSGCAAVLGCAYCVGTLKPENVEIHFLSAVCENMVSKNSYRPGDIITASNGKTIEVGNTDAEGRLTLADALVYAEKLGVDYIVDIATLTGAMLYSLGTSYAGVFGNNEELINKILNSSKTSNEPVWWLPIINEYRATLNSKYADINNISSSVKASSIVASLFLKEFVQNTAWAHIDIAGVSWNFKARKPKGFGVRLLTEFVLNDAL

[10] = cells; type: functional, cell-based
[11] = molecular target: T2, Trace amine-associated receptor 1 (Homo sapiens, UniProt Q96RJ0); assay: Fluorescence-based cell-based high throughput dose response assay to identify agonists of the human trace amine associated receptor 1 (TAAR1).; type: functional
T2 sequence (Q96RJ0 whole entry): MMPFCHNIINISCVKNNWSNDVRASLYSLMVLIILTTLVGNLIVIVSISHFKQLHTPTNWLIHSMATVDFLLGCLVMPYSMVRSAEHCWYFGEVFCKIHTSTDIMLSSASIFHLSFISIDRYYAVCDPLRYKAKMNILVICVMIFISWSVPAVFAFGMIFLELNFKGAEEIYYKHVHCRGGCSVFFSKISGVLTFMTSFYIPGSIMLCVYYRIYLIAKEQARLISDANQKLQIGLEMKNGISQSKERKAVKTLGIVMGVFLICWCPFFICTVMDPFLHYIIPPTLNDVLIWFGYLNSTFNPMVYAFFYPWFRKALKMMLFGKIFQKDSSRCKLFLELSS

[12] = molecular target: T2, Trace amine-associated receptor 1; assay: Counterscreen for agonists of the human trace amine associated receptor 1 (hTAAR1): Fluorescence-based cell-based high throughput dose response assay to identify hTAAR1 agonist that also desensitize TAAR1 receptor response.; type: functional
[13] = cells; type: functional, cell-based; remark: listed apart in the source
[14] = T. cruzi growth inhibition in host cells, dose response, cell-based, plate reader, dry powder, set 2 (AID 652275); type: functional
[15] = tested on: Vero; assay: cells; type: functional; conditions: Chlorocebus sabaeus

Chain of Fructose-bisphosphate aldolase (P9WQA3 whole entry, the tested form may be a part): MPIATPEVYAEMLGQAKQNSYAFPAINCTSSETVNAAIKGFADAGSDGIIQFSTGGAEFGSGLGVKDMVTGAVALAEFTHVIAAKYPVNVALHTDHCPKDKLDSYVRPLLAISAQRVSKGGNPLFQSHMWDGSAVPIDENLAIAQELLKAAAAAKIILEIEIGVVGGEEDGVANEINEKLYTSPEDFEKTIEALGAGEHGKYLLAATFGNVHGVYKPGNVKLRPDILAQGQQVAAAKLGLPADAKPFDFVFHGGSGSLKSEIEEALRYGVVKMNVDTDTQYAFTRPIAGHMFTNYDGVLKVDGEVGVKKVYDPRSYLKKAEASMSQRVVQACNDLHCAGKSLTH

Structure (SMILES): Cc1cc(C)c2oc(-c3cccc(N)c3)nc2c1
- IC50 [1]: 0.518 µM (active)

Structure (SMILES): COc1ccc(COC(=O)C2=C(C)NC(=O)NC2c2ccc(OC)cc2)cc1 (configuration not stated)
- AC50 [2]: 21.6 µM (active)
- AC50 [3]: 60.3 µM (active)
- AC50 [4]: 47.3 µM (active)
- AC50 [5]: 33.4 µM (active)

Structure (SMILES): C[C@@H]1CN([C@@H](C)CO)S(=O)(=O)c2ccc(/C=C/c3ccccc3)cc2O[C@@H]1CN(C)C(=O)NC1CCCCC1
- AC50 [6]: 0.533 µM (active)

Structure (SMILES): O=C(/C=C/c1ccc(-c2ccccc2)o1)c1ccccc1
- EC50 [7]: > 91.2 µM (inactive)
- EC50 [8]: > 91.2 µM (inactive)

Structure (SMILES): CC1=C(C)CC(C(=O)NCCc2ccccc2)C(C(=O)O)C1 (configuration not stated)
- IC50 [9]: 46 µM (active)
- IC50 [10]: > 29.9 µM (inactive)
- EC50 [11]: 1.4 µM (active)
- IC50 [12]: 7.2 µM (active)
- EC50 [13]: > 29.9 µM (inactive)

Structure (SMILES): C[C@H]1CN([C@@H](C)CO)C(=O)c2cccc(NC(=O)c3ccncc3)c2O[C@@H]1CN(C)Cc1ccccc1C(F)(F)F
- AC50 [14]: 0.0342 µM (active)

Structure (SMILES): O=C(/C=C/c1ccc(O)cc1)c1ccc(O)cc1O [ISOLIQUIRITIGENIN]
- CC50 [15]: > 25 µM (active)
- EC50 [7]: > 91.1 µM (inactive)
- EC50 [8]: > 91.1 µM (inactive)
